For 21 compounds, IC50 and Ki results are on record in ChEMBL document CHEMBL1909046, “DrugMatrix in vitro pharmacology data”.

For one test, the target named is Carbonic anhydrase 2 (Homo sapiens, UniProt P00918). The test is described as follows: DRUGMATRIX: Carbonic Anhydrase II enzyme inhibition (substrate: 4-Nitrophenyl acetate (4-NPA)). Type of test: tissue-based. Conditions: erythrocyte; Not Active = under 50% inhibition at 10 µM.
The target in another test is Glycine receptor (Rattus norvegicus, UniProt P22771+P24524+P07727+P20781). It counts as cell membranes, Wistar, Spinal cord, Membrane. Further: in other assays of this panel Not Active means under 50% inhibition at 10 µM.
The target of the next test is T1, Leukotriene C4 synthase (Cavia porcellus, UniProt A6XA80).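 Further: enzyme inhibition assay of leukotriene C4 synthase, using LTA4 as the substrate; in other assays of this panel Not Active means under 50% inhibition at 10 µM.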
T1 sequence (A6XA80 whole entry): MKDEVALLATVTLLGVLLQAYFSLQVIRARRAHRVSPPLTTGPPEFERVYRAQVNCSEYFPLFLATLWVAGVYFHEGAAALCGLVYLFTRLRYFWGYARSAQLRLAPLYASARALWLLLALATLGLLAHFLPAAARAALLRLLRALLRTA
It counts as tissue-based, Lung.

Test [1] concerns the target cGMP-specific 3',5'-cyclic phosphodiesterase (Homo sapiens, UniProt O76074). Briefly: DRUGMATRIX: Phosphodiesterase PDE5 enzyme inhibition (substrate: [3H]cGMP + cGMP). It counts as tissue-based, Platelet. Conditions: Not Active = under 50% inhibition at 10 µM.
In another test the target is T2, Progesterone receptor (Bos taurus, UniProt Q690N0).
T2 sequence (Q690N0 whole entry): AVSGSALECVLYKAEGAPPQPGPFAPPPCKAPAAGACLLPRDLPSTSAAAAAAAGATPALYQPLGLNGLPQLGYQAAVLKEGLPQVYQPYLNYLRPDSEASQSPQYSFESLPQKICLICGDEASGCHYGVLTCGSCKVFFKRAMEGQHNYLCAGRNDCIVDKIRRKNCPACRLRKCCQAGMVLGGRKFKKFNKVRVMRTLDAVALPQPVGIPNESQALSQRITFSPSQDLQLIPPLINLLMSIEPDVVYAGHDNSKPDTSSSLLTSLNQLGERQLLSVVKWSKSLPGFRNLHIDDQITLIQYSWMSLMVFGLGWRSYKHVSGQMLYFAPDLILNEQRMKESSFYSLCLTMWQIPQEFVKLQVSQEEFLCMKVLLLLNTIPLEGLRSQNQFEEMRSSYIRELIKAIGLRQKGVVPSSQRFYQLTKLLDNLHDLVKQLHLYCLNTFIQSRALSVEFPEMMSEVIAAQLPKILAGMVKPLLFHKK
Briefly: DRUGMATRIX: Progesterone radioligand binding (ligand: [3H] R-5020). It counts as tissue-based, Uterus. The following applies: Not Active = under 50% inhibition at 10 µM.

The target in the next test is T3, Interstitial collagenase (Homo sapiens, UniProt P03956).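 Further: MMP-1 enzyme inhibition assay using a peptide substrate; in other assays of this panel Not Active means under 50% inhibition at 10 µM.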
T3 sequence (P03956 whole entry): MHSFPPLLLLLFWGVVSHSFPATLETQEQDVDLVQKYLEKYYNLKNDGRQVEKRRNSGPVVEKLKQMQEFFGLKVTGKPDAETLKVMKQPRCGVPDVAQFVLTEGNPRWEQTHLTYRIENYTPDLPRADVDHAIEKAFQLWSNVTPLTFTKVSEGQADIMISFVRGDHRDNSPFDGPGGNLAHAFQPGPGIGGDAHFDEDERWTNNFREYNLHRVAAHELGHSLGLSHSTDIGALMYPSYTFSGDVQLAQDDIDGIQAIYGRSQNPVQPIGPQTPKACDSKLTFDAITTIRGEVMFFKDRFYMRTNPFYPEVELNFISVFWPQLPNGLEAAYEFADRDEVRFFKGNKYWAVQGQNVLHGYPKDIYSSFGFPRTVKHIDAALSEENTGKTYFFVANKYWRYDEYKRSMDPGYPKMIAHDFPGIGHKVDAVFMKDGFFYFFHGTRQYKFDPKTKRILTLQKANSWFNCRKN
The test is described as follows: biochemical. Type of test: tissue-based, Rheumatoid synovial fibroblasts.

In test [2] the target is Mitogen-activated protein kinase 3 (Homo sapiens, UniProt P27361). The test is described as follows: DRUGMATRIX: Protein Serine/Threonine Kinase, ERK1 enzyme inhibition (substrate: Myelin Basic Protein). The following applies: Not Active = under 50% inhibition at 10 µM. Also on record: species or system Escherichia coli.

SMILES strings stand for the structures.

Chain of Mitogen-activated protein kinase 3 (P27361 whole entry): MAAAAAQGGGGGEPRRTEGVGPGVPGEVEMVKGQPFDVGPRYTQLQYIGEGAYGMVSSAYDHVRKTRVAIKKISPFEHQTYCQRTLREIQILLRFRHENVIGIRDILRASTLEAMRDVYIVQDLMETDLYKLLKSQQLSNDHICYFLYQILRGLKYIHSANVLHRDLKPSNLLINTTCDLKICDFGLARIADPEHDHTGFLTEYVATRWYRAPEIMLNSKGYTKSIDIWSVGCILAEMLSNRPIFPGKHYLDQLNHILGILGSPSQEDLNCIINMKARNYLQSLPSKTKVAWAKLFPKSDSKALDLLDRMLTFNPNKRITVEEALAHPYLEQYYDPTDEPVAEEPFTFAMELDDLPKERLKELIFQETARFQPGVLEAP

For the compound `COC1=C(OC)C(=O)C(CCCCCCCCCCO)=C(C)C1=O` [IDEBENONE], the IC50 result (against Carbonic anhydrase 2; against Glycine receptor; against Leukotriene C4 synthase; in test [1] (platelet); on Progesterone receptor; on Interstitial collagenase) was “Not Active” in each case. Besides, the concentration for half-maximal inhibition (IC50) entry in test [2] was “Not Active”.
On to `CC(C)NNC(=O)c1ccncc1` [IPRONIAZID], for which the IC50 entry (on Carbonic anhydrase 2; against Glycine receptor; on Leukotriene C4 synthase; in test [1] (platelet); on Progesterone receptor; against Interstitial collagenase) was “Not Active” throughout. Besides, in test [2], the IC50 result was “Not Active”.
On to `Cc1c(OCC(F)(F)F)ccnc1C[S+]([O-])c1nc2ccccc2[nH]1` (stereo not drawn) [LANSOPRAZOLE], for which the IC50 result (at Carbonic anhydrase 2; against Glycine receptor; against Leukotriene C4 synthase; in test [1] (platelet); on Progesterone receptor; against Interstitial collagenase) was “Not Active” throughout. The IC50 result in test [2] is recorded as “Not Active”.
For `O=c1cc(N2CCOCC2)oc2c(-c3ccccc3)cccc12` [LY-294002], the IC50 result is “Not Active” on Carbonic anhydrase 2; “Not Active” at Glycine receptor; “Not Active” at Leukotriene C4 synthase; 9.61 µM in test [1] (read-out: IC50); “Not Active” at Progesterone receptor; “Not Active” against Interstitial collagenase. For the same compound, the IC50 entry in test [2] is reported as “Not Active”.
Turning to `COc1ccc2[nH]cc(CCNC(C)=O)c2c1` [MELATONIN], the half-inhibitory concentration (IC50) entry (against Carbonic anhydrase 2; against Glycine receptor; against Leukotriene C4 synthase; in test [1] (platelet); at Progesterone receptor; on Interstitial collagenase) was “Not Active” each time. For the same compound, the IC50 entry in test [2] is given as “Not Active”.
Regarding `NC(=O)C[S+]([O-])C(c1ccccc1)c1ccccc1` (stereo not drawn) [MODAFINIL], the IC50 result (at Carbonic anhydrase 2; against Glycine receptor; at Leukotriene C4 synthase; in test [1] (platelet); on Progesterone receptor; against Interstitial collagenase) was “Not Active” each time. Besides, in test [2], the half-inhibitory concentration (IC50) result was “Not Active”.
On to `CCN(CC)CCOCCC1=CCC2CC1C2(C)C` (stereo not drawn) [MYRTECAINE], for which the concentration for half-maximal inhibition (IC50) entry (at Carbonic anhydrase 2; on Glycine receptor; against Leukotriene C4 synthase; in test [1] (platelet); on Progesterone receptor; against Interstitial collagenase) was “Not Active” in each case. Moreover, the concentration for half-maximal inhibition (IC50) result in test [2] is recorded as “Not Active”.
For the compound `O=C(O)c1cccnc1Nc1cccc(C(F)(F)F)c1` [NIFLUMIC ACID], the IC50 entry (at Carbonic anhydrase 2; against Glycine receptor; against Leukotriene C4 synthase; in test [1] (platelet); at Progesterone receptor; against Interstitial collagenase) was “Not Active” each time. The IC50 result in test [2] is “Not Active”.
With `O=C(N/N=C/c1ccc([N+](=O)[O-])o1)c1cc([N+](=O)[O-])cc([N+](=O)[O-])c1O` [NIFURSOL], the IC50 result (against Carbonic anhydrase 2; against Glycine receptor; at Leukotriene C4 synthase; in test [1] (platelet); on Progesterone receptor; on Interstitial collagenase) was “Not Active” throughout. For the same compound, the IC50 entry in test [2] is “Not Active”.
For the compound `COC(=O)Nc1nc2ccc(C(=O)c3cccs3)cc2[nH]1` [NOCODAZOLE], the IC50 entry (at Carbonic anhydrase 2; at Glycine receptor; against Leukotriene C4 synthase; in test [1] (platelet); at Progesterone receptor; on Interstitial collagenase) was “Not Active” each time. In test [2], the IC50 entry was “Not Active”.
With `C#CC1(O)CC[C@H]2[C@@H]3CCC4=CC(=O)CC[C@@H]4[C@H]3CC[C@@]21CC` (stereo partly drawn) [NORGESTREL], the IC50 result against Carbonic anhydrase 2 was “Not Active”; on Glycine receptor it was “Not Active”; on Leukotriene C4 synthase it was “Not Active”; in test [1] (platelet), “Not Active”; on Progesterone receptor (read-out: IC50), 0.00351 µM; on Interstitial collagenase it was “Not Active”. The IC50 result in test [2] is “Not Active”. For the same compound, the inhibitory constant (Ki) at Progesterone receptor (read-out: Ki) came out at 0.000458 µM.
With `COC(=O)Nc1nc2ccc([S+]([O-])c3ccccc3)cc2[nH]1` (stereo not drawn) [OXFENDAZOLE], the half-inhibitory concentration (IC50) entry (at Carbonic anhydrase 2; on Glycine receptor; at Leukotriene C4 synthase; in test [1] (platelet); on Progesterone receptor; against Interstitial collagenase) was “Not Active” each time. Further, in test [2], the IC50 result is “Not Active”.
In the case of `CC(=O)O[C@H]1C(=O)[C@@]2(C)[C@H]([C@H](OC(=O)c3ccccc3)[C@]3(O)C[C@H](OC(=O)[C@H](O)[C@@H](NC(=O)c4ccccc4)c4ccccc4)C(C)=C1C3(C)C)[C@]1(OC(C)=O)CO[C@@H]1C[C@@H]2O` [PACLITAXEL], the IC50 entry (on Carbonic anhydrase 2; on Glycine receptor; at Leukotriene C4 synthase; in test [1] (platelet); on Progesterone receptor; against Interstitial collagenase) was “Not Active” throughout. Further, in test [2], the IC50 result was “Not Active”.
On to `C[n+]1ccc(-c2cc[n+](C)cc2)cc1.[Cl-].[Cl-]` [PARAQUAT DICHLORIDE], for which the half-maximal inhibitory concentration (IC50) result (on Carbonic anhydrase 2; against Glycine receptor; at Leukotriene C4 synthase; in test [1] (platelet); at Progesterone receptor; against Interstitial collagenase) was “Not Active” each time. The IC50 entry in test [2] is “Not Active”.
Take `CCn1cc(C(=O)O)c(=O)c2cnc(N3CCCC3)nc21` [PIROMIDIC ACID]: the IC50 result (on Carbonic anhydrase 2; at Glycine receptor; against Leukotriene C4 synthase; in test [1] (platelet); at Progesterone receptor; against Interstitial collagenase) was “Not Active” in each case. Further, in test [2], the IC50 entry is “Not Active”.
`C[n+]1ccccc1/C=N/O.[Cl-]` [PRALIDOXIME CHLORIDE]: the IC50 entry (against Carbonic anhydrase 2; at Glycine receptor; on Leukotriene C4 synthase; in test [1] (platelet); on Progesterone receptor; against Interstitial collagenase) was “Not Active” throughout. The IC50 result in test [2] is recorded as “Not Active”.
For the compound `COc1cc2nc(N3CCN(C(=O)c4ccco4)CC3)nc(N)c2cc1OC` [PRAZOSIN], the half-maximal inhibitory concentration (IC50) result on Carbonic anhydrase 2 was “Not Active”; at Glycine receptor it was “Not Active”; on Leukotriene C4 synthase, “Not Active”; in test [1] (platelet) it was “Not Active”; on Progesterone receptor, “Not Active”; on Interstitial collagenase (read-out: IC50), 4.04 µM. Moreover, the IC50 result in test [2] is reported as “Not Active”.
As for `C[C@]12C=CC(=O)C=C1CC[C@@H]1[C@@H]2[C@@H](O)C[C@@]2(C)[C@H]1CC[C@]2(O)C(=O)CO` [PREDNISOLONE], the IC50 entry (on Carbonic anhydrase 2; against Glycine receptor; at Leukotriene C4 synthase; in test [1] (platelet); at Progesterone receptor; against Interstitial collagenase) was “Not Active” each time. Further, in test [2], the IC50 result is on record as “Not Active”.
With `CC(=O)[C@H]1[C@H](C#N)C[C@H]2[C@@H]3CC=C4C[C@@H](O)CC[C@]4(C)[C@H]3CC[C@@]21C` [PREGNENOLONE CARBONITRILE], the concentration for half-maximal inhibition (IC50) entry (against Carbonic anhydrase 2; against Glycine receptor; against Leukotriene C4 synthase; in test [1] (platelet); on Progesterone receptor; against Interstitial collagenase) was “Not Active” each time. Besides, in test [2], the IC50 result was “Not Active”.
In the case of `CCCN(CCC)S(=O)(=O)c1ccc(C(=O)O)cc1` [PROBENECID], the IC50 entry (against Carbonic anhydrase 2; against Glycine receptor; on Leukotriene C4 synthase; in test [1] (platelet); on Progesterone receptor; against Interstitial collagenase) was “Not Active” in each case. Also, in test [2], the IC50 entry was “Not Active”.
For the compound `CCCNCC(O)COc1ccccc1C(=O)CCc1ccccc1` (stereo not drawn) [PROPAFENONE], the IC50 entry (at Carbonic anhydrase 2; at Glycine receptor; at Leukotriene C4 synthase; in test [1] (platelet); at Progesterone receptor; against Interstitial collagenase) was “Not Active” throughout. Besides, the IC50 entry in test [2] was “Not Active”.

One may read the IC50 as the midpoint of a concentration-inhibition curve. What is called Ki is the equilibrium dissociation constant of an inhibitor or competing ligand from its target.
